The record followed here is patent publication US8889711B2, “Pyrazolopyridine derivatives as anticancer agent” (Pierre Fabre Medicament, priority 2009, dated 2014).

The term IC50 denotes the concentration that inhibits the measured activity by half.

Structures are written as SMILES.

Sequence of ALK kinase (Q9UM73 19-1620): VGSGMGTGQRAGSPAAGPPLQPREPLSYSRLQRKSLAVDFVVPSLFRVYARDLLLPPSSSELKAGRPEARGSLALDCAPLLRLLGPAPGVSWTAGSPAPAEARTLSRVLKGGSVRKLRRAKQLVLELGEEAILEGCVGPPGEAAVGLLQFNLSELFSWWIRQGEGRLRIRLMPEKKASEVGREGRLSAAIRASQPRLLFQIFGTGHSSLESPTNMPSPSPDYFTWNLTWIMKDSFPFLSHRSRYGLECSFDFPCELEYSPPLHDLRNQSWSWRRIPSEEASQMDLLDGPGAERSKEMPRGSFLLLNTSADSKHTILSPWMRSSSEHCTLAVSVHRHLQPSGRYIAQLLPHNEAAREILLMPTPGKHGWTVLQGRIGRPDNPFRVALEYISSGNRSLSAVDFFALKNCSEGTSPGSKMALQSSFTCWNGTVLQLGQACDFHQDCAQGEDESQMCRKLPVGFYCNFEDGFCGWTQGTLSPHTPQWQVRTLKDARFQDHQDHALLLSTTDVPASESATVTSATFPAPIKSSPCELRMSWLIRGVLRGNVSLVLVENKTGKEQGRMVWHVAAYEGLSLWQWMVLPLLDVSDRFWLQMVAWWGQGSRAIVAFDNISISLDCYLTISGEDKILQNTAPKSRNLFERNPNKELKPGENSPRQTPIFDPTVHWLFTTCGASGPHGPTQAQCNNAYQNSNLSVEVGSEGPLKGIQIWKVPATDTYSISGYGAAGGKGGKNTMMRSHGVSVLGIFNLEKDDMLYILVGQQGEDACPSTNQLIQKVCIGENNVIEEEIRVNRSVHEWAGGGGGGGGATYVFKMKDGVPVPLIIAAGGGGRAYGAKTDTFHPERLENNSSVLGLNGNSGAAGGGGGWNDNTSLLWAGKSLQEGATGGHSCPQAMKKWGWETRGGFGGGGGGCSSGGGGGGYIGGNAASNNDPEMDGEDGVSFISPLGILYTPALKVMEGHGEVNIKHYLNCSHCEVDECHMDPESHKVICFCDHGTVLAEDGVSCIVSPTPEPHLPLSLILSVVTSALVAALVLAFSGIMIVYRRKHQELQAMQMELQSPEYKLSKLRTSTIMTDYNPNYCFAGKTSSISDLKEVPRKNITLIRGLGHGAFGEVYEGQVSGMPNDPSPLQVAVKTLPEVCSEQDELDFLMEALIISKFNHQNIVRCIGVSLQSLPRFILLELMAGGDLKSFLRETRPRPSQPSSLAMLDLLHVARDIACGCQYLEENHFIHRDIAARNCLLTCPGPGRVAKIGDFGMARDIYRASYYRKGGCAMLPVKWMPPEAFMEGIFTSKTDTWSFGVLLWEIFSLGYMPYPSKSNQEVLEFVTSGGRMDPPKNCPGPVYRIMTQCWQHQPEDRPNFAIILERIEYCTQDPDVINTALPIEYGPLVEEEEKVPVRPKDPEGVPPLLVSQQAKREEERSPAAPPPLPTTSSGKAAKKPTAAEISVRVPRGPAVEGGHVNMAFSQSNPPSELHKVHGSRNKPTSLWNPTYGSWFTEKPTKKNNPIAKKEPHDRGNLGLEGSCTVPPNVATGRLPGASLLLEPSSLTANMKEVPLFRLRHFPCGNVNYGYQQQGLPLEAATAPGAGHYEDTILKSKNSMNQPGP

One experiment relates to karpas 299 cells. Nature of the experiment: Measurement of inhibition of cell proliferation (Karpas), ATPlite. It counts as cell-based. Particulars: Homo sapiens, KARPAS-299, 72 h. The procedure, abridged:
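Karpas 299 cells seeded at 300 000 cells/ml, treated on Day 1 and incubated at 37° C under 5% CO2 for 72 h. Viability measured on Day 4 by ATPlite luminescence of ATP from viable cells. IC50 derived by non-linear sigmoid dose-response regression with variable Hill slope.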
Background: Cellular ATP, detected with luciferase, serves as a proxy for viable cell number.
The molecule `N#Cc1c(-c2c(F)ccc(F)c2F)nc2[nH]nc(-c3ccco3)c2c1-c1ccc(N2CCNCC2)cc1` [Compound 242] showed an IC50 of 1 to 10 µM.
On the same count and under the same terms, to `N#Cc1c(-c2ccc(O)cc2F)nc2[nH]nc(-c3ccc(C(F)(F)F)cc3)c2c1-c1ccc(N2CCNCC2)cc1` [Compound 244] belongs 0.1 to 1 µM; to `CCOC(=O)c1c(-c2c(F)ccc(F)c2F)nc2[nH]nc(-c3cccs3)c2c1-c1ccc(N2CCNCC2)cc1` [Compound 245], 1 to 10 µM.
Still for that read-out and setting: to `Cc1c(C#N)c(-c2c(F)ccc(F)c2F)nc2[nH]nc(-c3ccc(N4CCNCC4)cc3)c12` [Compound 248] belongs 1 to 10 µM; to `Cc1cc(-c2nc3[nH]nc(-c4ccco4)c3c(-c3ccc(N4CCNCC4)cc3)c2C#N)ccc1O` [Compound 251], 0.1 to 1 µM; to `CCOC(=O)c1c(-c2c(F)ccc(F)c2F)nc2[nH]nc(C)c2c1-c1ccc(N2CCNCC2)cc1` [Compound 252], 1 to 10 µM.
Turning to `Cc1n[nH]c2nc(-c3c(F)ccc(F)c3F)c(C#N)c(-c3ccc(N4CCC(N)CC4)o3)c12` [Compound 253], the IC50 was in the range of 1 to 10 µM.
Take `Cc1n[nH]c2nc(-c3ccc(O)cc3Cl)c(C#N)c(-c3ccc(N4CCNCC4)cc3)c12` [Compound 254]: the IC50 is 1 to 10 µM.
For `N#Cc1c(-c2c(F)ccc(F)c2F)nc2[nH]nc(-c3ccco3)c2c1-c1ccc(N2CCOCC2)o1` [Compound 255], the IC50 was 1 to 10 µM.
On the same count and under the same terms, to `N#Cc1c(-c2ccc(O)cc2Cl)nc2[nH]nc(-c3ccc(N4CCOCC4)cc3)c2c1-c1ccc(N2CCNCC2)cc1` [Compound 256] belongs 1 to 10 µM; to `Cc1n[nH]c2nc(-c3ccc(O)cc3F)c(C#N)cc12` [Compound 260], 1 to 10 µM; to `Cc1n[nH]c2nc(-c3ccc(O)cc3F)c(C#N)c(-c3ccc(-c4ccc(S(N)(=O)=O)cc4)o3)c12` [Compound 270], above 10 µM.
The molecule `N#Cc1c(-c2ccc(O)cc2F)nc2[nH]nc(N)c2c1-c1ccc(-c2ccc(S(N)(=O)=O)cc2)o1` [Compound 271] gave an IC50 above 10 µM.
Still for that read-out and setting: to `N#Cc1c(-c2ccoc2)nc2[nH]nc(-c3ccco3)c2c1-c1ccc(N2CCNCC2)cc1` [Compound 272] belongs 1 to 10 µM; to `Cc1n[nH]c2nc(-c3ccc(O)cc3)c(C#N)c(-c3ccc(-c4ccc(N)cc4)o3)c12` [Compound 273], above 10 µM.
`CN(C)CC#Cc1ccc(-c2c(C#N)c(-c3ccc(O)cc3)nc3[nH]ncc23)o1` [Compound 274] came in with an IC50 of 1 to 10 µM.
Turning to `Cc1n[nH]c2nc(-c3ccc(O)cc3)c(C#N)c(-c3ccc(-c4ccc(S(N)(=O)=O)cc4)o3)c12` [Compound 275], the IC50 was above 10 µM.
In turn, `N#Cc1c(-c2cscn2)nc2[nH]nc(-c3cccs3)c2c1-c1ccc(N2CCNCC2)cc1` [Compound 276] gave an IC50 of 1 to 10 µM.
Molecule `Cc1n[nH]c2nc(-c3ccc(O)c(F)c3F)c(C#N)c(-c3ccc(N4CCNCC4)cc3)c12` [Compound 277] gave a 50% inhibitory concentration (IC50) above 10 µM.
As for `Cc1cc(-c2nc3[nH]nc(-c4cccs4)c3c(-c3ccc(N4CCNCC4)cc3)c2C#N)c(F)cc1O` [Compound 278], the IC50 was 0.1 to 1 µM.
On the same count and under the same terms, to `N#Cc1c(-c2cnn[nH]2)nc2[nH]nc(-c3cccs3)c2c1-c1ccc(N2CCNCC2)cc1` [Compound 279] belongs above 10 µM; to `N#Cc1c(-c2cncs2)nc2[nH]nc(-c3cccs3)c2c1-c1ccc(N2CCNCC2)cc1` [Compound 280], 1 to 10 µM; to `N#Cc1c(-c2cscn2)nc2[nH]nc(-c3ccc(N4CCOCC4)cc3)c2c1-c1ccc(N2CCNCC2)cc1` [Compound 281], 1 to 10 µM.
Take `N#Cc1c(-c2ccnc(O)c2)nc2[nH]nc(-c3cccs3)c2c1-c1ccc(N2CCNCC2)cc1` [Compound 282]: the IC50 was above 10 µM.
Still for that read-out and setting: to `Cc1cc(-c2nc3[nH]nc(-c4cccs4)c3c(-c3ccc(N4CCNCC4)cc3)c2C#N)cc(C)c1O` [Compound 283] belongs 1 to 10 µM.

The target in another experiment is ALK kinase (Homo sapiens, UniProt Q9UM73). Description: Test to measure ALK kinase inhibition (GST-PLCγ1 substrate, anti-phosphotyrosine ELISA, luminescence). As to conditions: ALK kinase 180 ng/ml, 250 μM ATP, 30 minutes at 30° C. The format is biochemical. The procedure, abridged:
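GST-PLCγ1 substrate-coated plate; ALK at 180 ng/ml in Tris pH 7.5 buffer with MgCl2, DTT, β-glycerophosphate, orthovanadate and 250 μM ATP, 30 min at 30 °C, inhibitor typically 30 μM to 10 nM. Phosphotyrosine detected with HRP anti-phosphotyrosine antibody, luminescence read-out.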
Background: An ELISA detects its analyte on a solid surface through an enzyme-linked reagent.
Turning to `N#Cc1c(-c2c(F)ccc(F)c2F)nc2[nH]nc(-c3ccco3)c2c1-c1ccc(N2CCNCC2)cc1` [Compound 242], the half-maximal inhibitory concentration (IC50) lay in the range of 0.1 to 1 µM.
`N#Cc1c(-c2ccc(O)cc2F)nc2[nH]nc(-c3ccc(C(F)(F)F)cc3)c2c1-c1ccc(N2CCNCC2)cc1` [Compound 244] came in with an IC50 below 0.1 µM.
`CCOC(=O)c1c(-c2c(F)ccc(F)c2F)nc2[nH]nc(-c3cccs3)c2c1-c1ccc(N2CCNCC2)cc1` [Compound 245] gave an IC50 of 0.1 to 1 µM.
The same measure, in the same setting: with `Cc1c(C#N)c(-c2c(F)ccc(F)c2F)nc2[nH]nc(-c3ccc(N4CCNCC4)cc3)c12` [Compound 248] the figure was 1 to 10 µM.
`Cc1cc(-c2nc3[nH]nc(-c4ccco4)c3c(-c3ccc(N4CCNCC4)cc3)c2C#N)ccc1O` [Compound 251] displayed an IC50 below 0.1 µM.
Regarding `CCOC(=O)c1c(-c2c(F)ccc(F)c2F)nc2[nH]nc(C)c2c1-c1ccc(N2CCNCC2)cc1` [Compound 252], the IC50 was in the range of 0.1 to 1 µM.
For `Cc1n[nH]c2nc(-c3c(F)ccc(F)c3F)c(C#N)c(-c3ccc(N4CCC(N)CC4)o3)c12` [Compound 253], the IC50 is 0.1 to 1 µM.
On to `Cc1n[nH]c2nc(-c3ccc(O)cc3Cl)c(C#N)c(-c3ccc(N4CCNCC4)cc3)c12` [Compound 254], for which the IC50 lay within 0.1 to 1 µM.
For the molecule `N#Cc1c(-c2c(F)ccc(F)c2F)nc2[nH]nc(-c3ccco3)c2c1-c1ccc(N2CCOCC2)o1` [Compound 255], the IC50 lay within 1 to 10 µM.
The same measure, in the same setting: to `N#Cc1c(-c2ccc(O)cc2Cl)nc2[nH]nc(-c3ccc(N4CCOCC4)cc3)c2c1-c1ccc(N2CCNCC2)cc1` [Compound 256] belongs below 0.1 µM; to `Cc1n[nH]c2nc(-c3ccc(O)cc3F)c(C#N)cc12` [Compound 260], 0.1 to 1 µM; to `Cc1n[nH]c2nc(-c3ccc(O)cc3F)c(C#N)c(-c3ccc(-c4ccc(S(N)(=O)=O)cc4)o3)c12` [Compound 270], 0.1 to 1 µM.
On the same count and under the same terms, to `N#Cc1c(-c2ccc(O)cc2F)nc2[nH]nc(N)c2c1-c1ccc(-c2ccc(S(N)(=O)=O)cc2)o1` [Compound 271] belongs 0.1 to 1 µM; to `N#Cc1c(-c2ccoc2)nc2[nH]nc(-c3ccco3)c2c1-c1ccc(N2CCNCC2)cc1` [Compound 272], 1 to 10 µM.
The same measure, in the same setting: with `Cc1n[nH]c2nc(-c3ccc(O)cc3)c(C#N)c(-c3ccc(-c4ccc(N)cc4)o3)c12` [Compound 273] the figure was 0.1 to 1 µM; with `CN(C)CC#Cc1ccc(-c2c(C#N)c(-c3ccc(O)cc3)nc3[nH]ncc23)o1` [Compound 274], 1 to 10 µM; with `Cc1n[nH]c2nc(-c3ccc(O)cc3)c(C#N)c(-c3ccc(-c4ccc(S(N)(=O)=O)cc4)o3)c12` [Compound 275], 0.1 to 1 µM.
Take `N#Cc1c(-c2cscn2)nc2[nH]nc(-c3cccs3)c2c1-c1ccc(N2CCNCC2)cc1` [Compound 276]: the IC50 is above 10 µM.
`Cc1n[nH]c2nc(-c3ccc(O)c(F)c3F)c(C#N)c(-c3ccc(N4CCNCC4)cc3)c12` [Compound 277]: the IC50 fell in the range of 0.1 to 1 µM.
Turning to `Cc1cc(-c2nc3[nH]nc(-c4cccs4)c3c(-c3ccc(N4CCNCC4)cc3)c2C#N)c(F)cc1O` [Compound 278], the IC50 is below 0.1 µM.
As to `N#Cc1c(-c2cnn[nH]2)nc2[nH]nc(-c3cccs3)c2c1-c1ccc(N2CCNCC2)cc1` [Compound 279], the IC50 was in the range of 1 to 10 µM.
Consider `N#Cc1c(-c2cncs2)nc2[nH]nc(-c3cccs3)c2c1-c1ccc(N2CCNCC2)cc1` [Compound 280], for which the IC50 was 1 to 10 µM.
In the case of `N#Cc1c(-c2cscn2)nc2[nH]nc(-c3ccc(N4CCOCC4)cc3)c2c1-c1ccc(N2CCNCC2)cc1` [Compound 281], the IC50 was 1 to 10 µM.
Take `N#Cc1c(-c2ccnc(O)c2)nc2[nH]nc(-c3cccs3)c2c1-c1ccc(N2CCNCC2)cc1` [Compound 282]: the IC50 was 1 to 10 µM.
On the same count and under the same terms, to `Cc1cc(-c2nc3[nH]nc(-c4cccs4)c3c(-c3ccc(N4CCNCC4)cc3)c2C#N)cc(C)c1O` [Compound 283] belongs 0.1 to 1 µM.
